Assay results reported in patent US20240279236A1, “COMPOUNDS AND METHODS OF TREATING TUBERCULOSIS” (Fimbrion Therapeutics, Inc., priority 2021, published 2024).

Each compound was assayed on WT Mtb Erdman strain (assay: Microplate Alamar Blue Assay (MABA), Mtb growth inhibition). Conditions: Mycobacterium tuberculosis, ERDMAN, 168 h, Middlebrook 7H9 media, 7 days at 37° C. in 5% CO2.
Type: cell-based, Mycobacterium tuberculosis
Compound `Cc1cc2c(NCCCc3ccccc3)nc(CS(C)(=O)=O)nc2s1` [Example 74, 6-methyl-2-((methylsulfonyl)methyl)-N-(3-phenylpropyl)thieno [2,3-d]pyrimidin-4-amine] has an IC50 greater than 10000 nM. `CSCc1nc(NCCCc2ccccc2)c2cc(C)sc2n1` [Example 75, 6-methyl-2-((methylthio)methyl)-N-(3-phenylpropyl)thieno [2,3-d]pyrimidin-4-amine] gave an IC50 of 2000 nM. In the case of `CCSc1nc(NCCCc2ccccc2)c2cc(C)sc2n1` [Example 76, 2-(ethylthio)-6-methyl-N-(3-phenylpropyl)thieno [2,3-d]pyrimidin-4-amine], the IC50 is reported as 92 nM. For `Cc1cc2c(NCCCc3ccccc3)nc(N(C)C)nc2s1` [Example 77, N2,N2,6-trimethyl-N4-(3-phenylpropyl)thieno [2,3-d]pyrimidine-2,4-diamine], the IC50 was 140 nM. `Cc1cc2c(NCCCc3ccccc3)nc(-c3ccncn3)nc2s1` [Example 78, 6-methyl-N-(3-phenylpropyl)-2-(pyrimidin-4-yl)thieno[2,3-d]pyrimidin-4-amine] gave an IC50 of 160 nM. `Cc1cc2c(NCCCc3ccc(OC(F)(F)F)cc3)nc(-c3ccncn3)nc2s1` [Example 79, 6-methyl-2-(pyrimidin-4-yl)-N-(3-(4-(trifluoromethoxy)phenyl)propyl)thieno [2,3-d]pyrimidin-4-amine] gave an IC50 of 480 nM. For `CCc1nc(NCCCNc2ccccc2)c2cc(C)sc2n1` [Example 80, N1-(2-ethyl-6-methylthieno[2,3-d]pyrimidin-4-yl)-N3-phenylpropane-1,3-diamine], the IC50 was 470 nM. `COCc1nc(NCCCc2ccccc2)c2cc(C)sc2n1` [Example 81, 2-(methoxymethyl)-6-methyl-N-(3-phenylpropyl)thieno [2,3-d]pyrimidin-4-amine] gave an IC50 of 3000 nM. `Cc1cc2c(NCCCc3ccc(OC(F)(F)F)cc3)nc(-c3ccc(F)cc3)nc2s1` [Example 82, 2-(4-fluorophenyl)-6-methyl-N-(3-(4-(trifluoromethoxy)phenyl)propyl)thieno[2,3-d]pyrimidin-4-amine] showed an IC50 of 1100 nM. `Cc1cc2c(NCCCc3ccc(O)cc3)nc(-c3ccc(F)cc3)nc2s1` [Example 83, 4-(3-((2-(4-fluorophenyl)-6-methylthieno[2,3-d]pyrimidin-4-yl)amino)propyl) phenol] gave an IC50 of 2500 nM. Work on `Fc1ccc(-c2nc(N[C@@H]3C[C@H]3c3ccc(F)c(F)c3)c3cc(C(F)(F)F)sc3n2)cc1` [Example 85, N-((1R,2S)-2-(3,4-difluorophenyl)cyclopropyl)-2-(4-fluorophenyl)-6-(trifluoromethyl)thieno [2,3-d]pyrimidin-4-amine] yielded an IC50 greater than 6800 nM. Compound `CCc1nc(NCCCc2ccccc2)c2cc(CC)sc2n1` [Example 86, 2,6-diethyl-N-(3-phenylpropyl)thieno [2,3-d]pyrimidin-4-amine] has an IC50 greater than 1200 nM. For `CCCCSc1nc(N[C@@H]2C[C@H]2c2ccc(F)c(F)c2)c2cc(C)sc2n1` [Example 87, 2-(butylthio)-N-((1R,2S)-2-(3,4-difluorophenyl)cyclopropyl)-6-methylthieno[2,3-d]pyrimidin-4-amine], the IC50 was 1500 nM. Compound `Cc1cc2c(N[C@@H]3C[C@H]3c3ccc(F)c(F)c3)nc(-c3ccco3)nc2s1` [Example 88, N-((1R,2S)-2-(3,4-difluorophenyl)cyclopropyl)-2-(furan-2-yl)-6-methylthieno[2,3-d]pyrimidin-4-amine] has an IC50 of 2200 nM. For `Cc1cccc(-c2nc(N[C@@H]3C[C@H]3c3ccc(F)c(F)c3)c3cc(C)sc3n2)n1` [Example 89, N-((1R,2S)-2-(3,4-difluorophenyl)cyclopropyl)-6-methyl-2-(6-methylpyridin-2-yl)thieno[2,3-d]pyrimidin-4-amine], the IC50 was greater than 10000 nM. Compound `Cc1cc2c(NCCCc3ccccc3)nc(-c3ccc(Cl)cc3)nc2s1` [Example 90, 2-(4-chlorophenyl)-6-methyl-N-(3-phenylpropyl)thieno [2,3-d]pyrimidin-4-amine] has an IC50 of 2000 nM. `Cc1cc2c(NCCCc3ccccc3)nc(-c3cccc(Cl)c3)nc2s1` [Example 91, 2-(3-chlorophenyl)-6-methyl-N-(3-phenylpropyl)thieno [2,3-d]pyrimidin-4-amine] was tested, and the IC50 was 5900 nM. `Cc1cc2c(NCCCc3ccccc3)nc(-c3ccc(N(C)C)cc3)nc2s1` [Example 92, 2-(4-(dimethylamino)phenyl)-6-methyl-N-(3-phenylpropyl)thieno [2,3-d]pyrimidin-4-amine] showed an IC50 of 2700 nM. `Cc1cc2c(NCCCc3ccccc3)nc(C3CCCC3)nc2s1` [Example 94, 2-cyclopentyl-6-methyl-N-(3-phenylpropyl)thieno [2,3-d]pyrimidin-4-amine] showed an IC50 of 930 nM. Compound `Cc1cc2c(NCCCc3ccccc3)nc(C3CCCCC3)nc2s1` [Example 95, 2-cyclohexyl-6-methyl-N-(3- |phenylpropyl)thieno [2,3-d]pyrimidin-4-amine] has an IC50 greater than 10000 nM. In the case of `Cc1cc2c(NCCCc3ccccc3)nc(C(N)=O)nc2s1` [Example 96, 6-methyl-4-((3-phenylpropyl)amino) thieno[2,3-d]pyrimidine-2-carboxamide], the IC50 is reported as 130 nM. `Cc1cc2c(NCCCc3ccccc3)nc(CC3CC3)nc2s1` [Example 97, 2-(cyclopropyLMethyl)-6-methyl-N-(3. phenylpropyl)thieno [2,3-d]pyrimidin-4-amine] showed an IC50 of 360 nM. In the case of `COC(=O)c1nc(NCCCc2ccccc2)c2cc(C)sc2n1` [Example 98, methyl 6-methyl-4-((3-phenylpropyl)amino) thieno[2,3-d]pyrimidine-2-carboxylate], the IC50 is reported as greater than 10000 nM. `CCc1nc(NCCCc2ccccc2)c2cc(C(F)(F)F)sc2n1` [Example 99, 2-ethyl-N-(3-phenylpropyl)-6-(trifluoromethyl)thieno [2,3-d]pyrimidin-4-amine] gave an IC50 of 5700 nM. In the case of `Cc1cc2c(NCCCc3ccccc3)nc(SC(C)C)nc2s1` [Example 100, 2-(isopropylthio)-6-methyl-N-(3-phenylpropyl)thieno [2,3-d]pyrimidin-4-amine], the IC50 is reported as 3200 nM. `Cc1cc2c(NCCCc3ccccc3)nc(-c3ccsc3)nc2s1` [Example 101, 6-methyl-N-(3-phenylpropyl)-2-(thiophen-3-yl)thieno[2,3-d]pyrimidin-4-amine] showed an IC50 of 490 nM. `Cc1cc2c(NCCCc3ccccc3)nc(-c3ccoc3)nc2s1` [Example 102, 2-(furan-3-yl)-6-methyl-N-(3-phenylpropyl)thieno [2,3-d]pyrimidin-4-amine] showed an IC50 of 27 nM. `COc1ccc(CCCNc2nc(SC)nc3sc(C)cc23)cc1` [Example 103, N-(3-(4-methoxyphenyl)propyl)-6-methyl-2-(methylthio)thieno[2,3-d]pyrimidin-4-amine] gave an IC50 of 22 nM. Work on `Cc1cc2c(NCCCc3ccccc3)nc(-c3cccnn3)nc2s1` [Example 104, 6-methyl-N-(3-phenylpropyl)-2-(pyridazin-3-yl)thieno[2,3-d]pyrimidin-4-amine] yielded an IC50 of 2000 nM. With `Cc1cc2c(NCCCc3ccccc3)nc(-c3cnccn3)nc2s1` [Example 105, 6-methyl-N-(3-phenylpropyl)-2-(pyrazin-2-yl)thieno[2,3-d]pyrimidin-4-amine] the IC50 was 2000 nM. `Cc1cc2c(NCCCc3ccccc3)nc(C3CCC3)nc2s1` [Example 106, 2-cyclobutyl-6-methyl-N-(3-phenylpropyl)thieno [2,3-d]pyrimidin-4-amine] gave an IC50 of 490 nM. `Cc1cc2c(N[C@@H]3C[C@H]3c3ccc(F)c(F)c3)nc(C(N)=O)nc2s1` [Example 107, 4-(((1R,2S)-2-(3,4-difluorophenyl)cyclopropyl)amino)-6-methylthieno[2,3-d]pyrimidine-2-carboxamide] showed an IC50 greater than 6400 nM. Work on `Cc1cc2c(NCCCc3ccccc3)nc(CN3CCCC3)nc2s1` [Example 108, 6-methyl-N-(3-phenylpropyl)-2-(pyrrolidin-1-yLM ethyl)thieno[2,3-d]pyrimidin-4-amine] yielded an IC50 greater than 7800 nM. Work on `Cc1cc2c(NCCCc3ccccc3)nc(CN(C)C)nc2s1` [Example 109, 2-((dimethylamino)methyl)-6-methyl-N-(3-phenylpropyl)thieno [2,3-d]pyrimidin-4-amine] yielded an IC50 greater than 10000 nM. With `Cc1cc2c(NCCCc3ccccc3)nc(-c3ccon3)nc2s1` [Example 110, 2-(isoxazol-3-yl)-6-methyl-N-(3-phenylpropyl)thieno [2,3-d]pyrimidin-4-amine] the IC50 was 55 nM. Work on `Cc1cc(-c2nc(NCCCc3ccccc3)c3cc(C)sc3n2)no1` [Example 111, 6-methyl-2-(5-methylisoxazol-3-yl)-N-(3-phenylpropyl)thieno [2,3-d]pyrimidin-4-amin] yielded an IC50 of 210 nM. `Cc1cc2c(NCCCc3ccccc3)nc(-c3cc[nH]n3)nc2s1` [Example 112, 6-methyl-N-(3-phenylpropyl)-2-(1H-pyrazol-3-yl)thieno[2,3-d]pyrimidin-4-amine] gave an IC50 of 2800 nM. `Cc1cc2c(NCCCc3ccccc3)nc(-c3ccco3)nc2s1` [Example 113] gave an IC50 of 800 nM. For `Cc1cc2c(N[C@@H]3C[C@H]3c3ccc(F)c(F)c3)nc(-c3ccoc3)nc2s1` [Example 114, N-((1R,2S)-2-(3,4-difluorophenyl)cyclopropyl)-2-(furan-3-yl)-6-methylthieno[2,3-d]pyrimidin-4-amine], the IC50 was 620 nM. For `Cc1cc2c(N[C@@H]3C[C@H]3c3ccc(F)c(F)c3)nc(C3CCC3)nc2s1` [Example 115, 2-cyclobutyl-N-((1R,2S)-2-(3,4-difluorophenyl)cyclopropyl)-6-methylthieno[2,3-d]pyrimidin-4-amine], the IC50 was 640 nM. In the case of `COC(C)(C)c1nc(NCCCc2ccccc2)c2cc(C)sc2n1` [Example 116, 2-(2-methoxypropan-2-yl)-6-methyl-N-(3-phenylpropyl)thieno [2,3-d]pyrimidin-4-amine], the IC50 is reported as greater than 10000 nM. In the case of `COC(=O)c1nc(NCCCc2ccc(OC(F)(F)F)cc2)c2cc(C)sc2n1` [Example 117, methyl 6-methyl-4-((3-(4-(trifluoromethoxy)phenyl)propyl)amino) thieno[2,3-d]pyrimidine-2-carboxylate], the IC50 is reported as greater than 7700 nM. Compound `COc1ccc(CCCNc2nc(-c3ccoc3)nc3sc(C)cc23)cc1` [Example 118, 2-(furan-3-yl)-N-(3-(4-methoxyphenyl)propyl)-6-methylthieno[2,3-d]pyrimidin-4-amine] has an IC50 of 82 nM. Work on `Cc1cc2c(NCCCc3ccccc3)nc(-c3cnsc3)nc2s1` [Example 119, 2-(isothiazol-4-yl)-6-methyl-N-(3-phenylpropyl)thieno [2,3-d]pyrimidin-4-amine] yielded an IC50 of 560 nM.
